In patent US20140336184A1, “METHOD TO ENHANCE COGNITION” (priority 2011, published 2014):

How the values were obtained:
PKR [1] = molecular target: T1, PKR (Homo sapiens, UniProt P19525); settings: Jammi et al., 2003; Shimazawa and Hara, 2006; cited from earlier work
[2] = test system: hippocampal slices from Pkr−/− mice; assay: Field recording (population spikes) in CA1 of hippocampal slices; assay type: cell-based, mouse; settings: PKRi
Method: Field recording: horizontal hippocampal slices ([…]) were cut from brains of WT or age-matched Pkr^−/− littermates in 4° C. artificial cerebrospinal fluid (ACSF) and kept in ACSF at room temperature for at least one hr before recording, as described (Zhu et al., 2005). Slices were maintained in an interface-type chamber perfused with oxygenated ACSF (95% O2 and 5% CO2) containing in mM: 124 NaCl, 2.0 KCl, 1.3 MgSO4, 2.5 CaCl2, 1.2 KH2PO4, 25 NaHCO3, and 10 glucose (2-3 ml/min). Bipolar stimulating electrodes were placed in the CA1 stratum radiatum to stimulate Schaffer collateral and commissural fibers. Field potentials were recorded using ACSF-filled micropipettes at 28-29° C. The recording electrodes were placed in the stratum radiatum for field excitatory postsynaptic potentials (fEPSPs), and stratum pyramidale for population spikes. The stimulus strength of the 0.1 ms pulses was adjusted to evoke 30-35% of maximum response for fEPSPs, and 50% of maximal response for population spikes. A stable baseline of responses was established for at least 30 min at 0.033 Hz. Tetanic LTP was induced by high-frequency stimulation in brief trains (100 Hz, 1 s), applied either as a single train or four trains separated by 5 min intervals. A short train consisted of 5 stimuli (100 Hz within-burst). […]

PKR [3] = molecular target: T1, PKR; settings: final concentration of 1 μM (Page et al., 2006; Wang et al., 2007); cited from earlier work
[4] = test system: Pkr−/− hippocampal slices; assay type: cell-based, mouse
Method: (§1) Field recording: horizontal hippocampal slices ([…]) were cut from brains of WT or age-matched Pkr^−/− littermates in 4° C. artificial cerebrospinal fluid (ACSF) and kept in ACSF at room temperature for at least one hr before recording, as described (Zhu et al., 2005). Slices were maintained in an interface-type chamber perfused with oxygenated ACSF (95% O2 and 5% CO2) containing in mM: 124 NaCl, 2.0 KCl, 1.3 MgSO4, 2.5 CaCl2, 1.2 KH2PO4, 25 NaHCO3, and 10 glucose (2-3 ml/min). Bipolar stimulating electrodes were placed in the CA1 stratum radiatum to stimulate Schaffer collateral and commissural fibers. Field potentials were recorded using ACSF-filled micropipettes at 28-29° C. The recording electrodes were placed in the stratum radiatum for field excitatory postsynaptic potentials (fEPSPs), and stratum pyramidale for population spikes. The stimulus strength of the 0.1 ms pulses was adjusted to evoke 30-35% of maximum response for fEPSPs, and 50% of maximal response for population spikes. A stable baseline of responses was established for at least 30 min at 0.033 Hz. Tetanic LTP was induced by high-frequency stimulation in brief trains (100 Hz, 1 s), applied either as a single train or four trains separated by 5 min intervals. A short train consisted of 5 stimuli (100 Hz within-burst). When indicated, ACSF was supplemented with anisomycin (Calbiochem, Calif.), PKRi (Calbiochem, Calif.), bicuculline (Tocris) or diazepam (Sigma-Aldrich). It should be noted that the inventors used bicuculline free base which only blocks GABAA receptor rather than bicuculline-M (bicuculline methiodide, methobromide or methochloride) which in addition to GABAA receptor also blocks small conductance (SK) calcium-activated potassium channels (Debarbieux et al., 1998). […] To reduce day-to-day variations, whenever possible simultaneous recordings (in the same chamber) were obtained from slices from Pkr^−/− mice and WT littermates treated with drugs or vehicle. Statistical analysis was performed using t-test and two-way ANOVA. […]

[5] = test system: CA1 neurons in WT hippocampal slices; assay type: cell-based, mouse
adult WT mice = assay: Video EEG recordings in freely moving mice; assay type: in vivo, mouse
From the text: Pkr knockout (Pkr^−/−) mice (Abraham et al., 1999) were back-crossed for at least eight generations to 129SvEv mice. Mice were weaned at the third postnatal week and genotyped by PCR. Briefly, the mutant and corresponding WT alleles are detected by a four-primer PCR assay in which Oligo-1 (5′-GGAACITrGGAGCAATGGA-3′) and Oligo-2 (5′-[…]-3′) give a WT band of 225 base-pair fragment and Oligo-3 (5′-TGTTCTGTGGCTATCAGGG-3′) and Oligo-4 (5′-[…]-3′) give a 432 base-pair fragment from the deleted allele. eIF2α^+/S51A mice were previously described (Costa-Mattioli et al., 2007; Scheuner et al., 2001). All experiments were performed on 8-16 weeks old males. The mice were kept on a 12 h light/dark cycle, and the behavioral experiments were always conducted during the light phase of the cycle. The mice had access to food and water ad libitum, except during tests. […]
PKRi (Calbiochem, San Diego), a potent ATP-binding-site-directed inhibitor of PKR which blocks PKR autophosphorylation (Jammi et al., 2003; Shimazawa and Hara, 2006), was prepared as a 20 mM stock solution in DMSO (dimethyl sufloxide). PKRi was freshly dissolved in saline and then injected intraperitoneally (i.p.) at a dose of 0.1 mg/kg and the EEG was recorded 1 hr after injection. A digital video camera simultaneously monitored behavior during the EEG recordings. […]

[6] = test system: hippocampal slices from WT mice; assay: Field recording (population spikes, fEPSPs) in CA1 of hippocampal slices; assay type: cell-based, mouse
Method: Field recording: horizontal hippocampal slices ([…]) were cut from brains of WT or age-matched Pkr^−/− littermates in 4° C. artificial cerebrospinal fluid (ACSF) and kept in ACSF at room temperature for at least one hr before recording, as described (Zhu et al., 2005). Slices were maintained in an interface-type chamber perfused with oxygenated ACSF (95% O2 and 5% CO2) containing in mM: 124 NaCl, 2.0 KCl, 1.3 MgSO4, 2.5 CaCl2, 1.2 KH2PO4, 25 NaHCO3, and 10 glucose (2-3 ml/min). Bipolar stimulating electrodes were placed in the CA1 stratum radiatum to stimulate Schaffer collateral and commissural fibers. Field potentials were recorded using ACSF-filled micropipettes at 28-29° C. The recording electrodes were placed in the stratum radiatum for field excitatory postsynaptic potentials (fEPSPs), and stratum pyramidale for population spikes. The stimulus strength of the 0.1 ms pulses was adjusted to evoke 30-35% of maximum response for fEPSPs, and 50% of maximal response for population spikes. A stable baseline of responses was established for at least 30 min at 0.033 Hz. Tetanic LTP was induced by high-frequency stimulation in brief trains (100 Hz, 1 s), applied either as a single train or four trains separated by 5 min intervals. A short train consisted of 5 stimuli (100 Hz within-burst). When indicated, ACSF was supplemented with anisomycin (Calbiochem, Calif.), PKRi (Calbiochem, Calif.), bicuculline (Tocris) or diazepam (Sigma-Aldrich). It should be noted that the inventors used bicuculline free base which only blocks GABAA receptor rather than bicuculline-M (bicuculline methiodide, methobromide or methochloride) which in addition to GABAA receptor also blocks small conductance (SK) calcium-activated potassium channels (Debarbieux et al., 1998). […] To reduce day-to-day variations, whenever possible simultaneous recordings (in the same chamber) were obtained from slices from Pkr^−/− mice and WT littermates treated with drugs or vehicle. Statistical analysis was performed using t-test and two-way ANOVA. All data are presented as means±SEM and “n” indicates the number of slices.

WT hippocampal slices = assay: Tetanic LTP (E-LTP/L-LTP) in hippocampal slices; assay type: cell-based, mouse
Method: as §1

WT mice = assay: Contextual and auditory fear conditioning; assay type: in vivo, mouse; settings: PKRi 0.1 mg/kg i.p. immediately after training, n=8
Method: The experimenter was blind to the genotype for all behavioral tests. Fear conditioning was performed as previously described (Costa-Mattioli et al., 2007). Mice were first handled for 3-5 min for 3 days and then habituated to the conditioning chamber for 20 min for another 3 days. On the training day, after 2 min in the conditioning chamber, mice received a pairing of a tone (2800 Hz, 85 db, 30 s) with a co-terminating foot-shock (0.35 mA, 1 s), after which they remained in the chamber for two additional min and then were returned to their home cages. Mice were tested 24 hr after training for “freezing” (immobility with the exception of respiration) in response to the tone (in a chamber to which they had not been conditioned) and to the training context (training chamber).
During testing for auditory fear conditioning, mice were placed in the chamber and freezing responses were recorded during the initial 2 min (pre-CS period) and during the last 3 min when the tone was played. Mice were returned to their cages 30 s after the end of the tone. […] For extinction trials, freezing in response to the conditioned context was assessed for 5 min, 24 hr, 48 hr, 72 hr and 96 hr after training and normalized to the amount of freezing obtained at 24 hr. For all tests, freezing behavior was determined at 5 s intervals during a 5 min period. […]

PKR [7] = molecular target: T2, PKR (Rattus norvegicus, UniProt Q63184); settings: dose of 0.1 mg/kg i.p. (Ingrand et al., 2007); cited from earlier work
T2 sequence (Q63184 1-513): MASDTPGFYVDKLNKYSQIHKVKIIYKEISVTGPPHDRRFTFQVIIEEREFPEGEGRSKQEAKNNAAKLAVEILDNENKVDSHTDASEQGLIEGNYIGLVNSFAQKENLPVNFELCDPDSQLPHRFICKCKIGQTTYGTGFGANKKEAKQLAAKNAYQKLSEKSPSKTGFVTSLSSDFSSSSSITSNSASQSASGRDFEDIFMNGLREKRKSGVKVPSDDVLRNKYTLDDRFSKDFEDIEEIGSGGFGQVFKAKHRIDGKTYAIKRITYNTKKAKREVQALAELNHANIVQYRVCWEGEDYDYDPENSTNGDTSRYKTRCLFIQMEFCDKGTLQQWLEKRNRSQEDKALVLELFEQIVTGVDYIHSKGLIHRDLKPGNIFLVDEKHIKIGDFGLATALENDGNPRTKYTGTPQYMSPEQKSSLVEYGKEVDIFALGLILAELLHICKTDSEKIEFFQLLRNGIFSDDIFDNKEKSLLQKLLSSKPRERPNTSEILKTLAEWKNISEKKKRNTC

[8] = test system: CA1 neurons in Pkr−/− hippocampal slices; assay: Whole-cell patch clamp recording of synaptic currents; assay type: cell-based, mouse; settings: PKRi
[9] = PKRi 1 μM, −60 mV, kynurenic acid
[10] = PKRi 1 μM, −60 mV, kynurenic acid 2 mM, TTX 1 μM

T1 sequence (P19525 whole entry): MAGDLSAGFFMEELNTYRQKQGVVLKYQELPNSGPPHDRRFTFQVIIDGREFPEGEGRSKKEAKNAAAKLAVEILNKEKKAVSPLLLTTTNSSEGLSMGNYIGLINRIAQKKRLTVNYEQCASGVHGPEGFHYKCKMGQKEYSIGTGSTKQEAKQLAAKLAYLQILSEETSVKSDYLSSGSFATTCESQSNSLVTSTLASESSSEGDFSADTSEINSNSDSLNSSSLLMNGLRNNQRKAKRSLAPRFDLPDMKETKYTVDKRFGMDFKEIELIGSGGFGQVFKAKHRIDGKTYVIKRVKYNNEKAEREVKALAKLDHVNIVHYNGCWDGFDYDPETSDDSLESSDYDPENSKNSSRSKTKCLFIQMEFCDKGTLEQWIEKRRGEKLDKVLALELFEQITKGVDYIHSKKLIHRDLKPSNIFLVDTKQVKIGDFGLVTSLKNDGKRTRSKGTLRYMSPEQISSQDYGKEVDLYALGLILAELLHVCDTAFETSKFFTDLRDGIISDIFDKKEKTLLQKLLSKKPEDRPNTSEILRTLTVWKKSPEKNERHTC

O=C1Nc2ccc3ncsc3c2/C1=C/c1cnc[nH]1 [PKRi]
PKR autophosphorylation (PKR [1]): blocks | Population spikes [2]: no effect | PKR activity ex-vivo (PKR [3]): known to block PKR activity ex-vivo | LTP elicited by a single 100 Hz train (1 s) ([4]; PKRi, Pkr−/− slices): did not further potentiate LTP | Evoked EPSCs ([5]; PKRi 1 μM bath application, picrotoxin 100 μM, −70 mV): no effect | Amplitude of sIPSCs [5, 9]: not amplitude | Frequency of sIPSCs [5, 9]: decreases | Amplitude of mIPSCs [5, 10]: but not their amplitude | Frequency of mIPSCs [5, 10]: decreased | Amplitude of pharmacologically isolated monosynaptic eIPSCs ([5]; PKRi bath-application, 50 μM APV, 10 μM CNQX, 10 μM CGP55845, 0 mV, half-maximal stimulation): reduced | Electrically isolated eIPSCs ([5]; PKRi, holding potential 0 mV, half-maximal stimulation): Reduced | Amplitude or frequency of sEPSCs, mEPSCs or eEPSCs ([5]; WT slices treated with PKRi): not significantly changed | mIPSCs Rise Time 10%-90% ([5]; WT slices treated with PKRi): 1.36 ± 0.07 ms | mIPSCs τW ([5]; WT slices treated with PKRi): 21.28 ± 1.24 ms | sIPSCs Rise Time 10%-90% ([5]; WT slices treated with PKRi): 1.68 ± 0.18 ms | sIPSCs τW ([5]; WT slices treated with PKRi): 22.89 ± 0.78 ms | Paired-pulse depression of IPSCs (IPSC2/IPSC1) ([5]; at 50 ms inter-stimulus interval): reduced | Abnormal EEG activity present (mice affected) (adult WT mice; PKRi 0.1 mg/kg i.p., recorded one hour after injection, absent in all WT controls (n=6), p<0.01): 6 out of 7 | Cortical EEG activity (adult WT mice; PKRi 0.1 mg/kg, adult WT mice): induces acute spiking (d) and rhythmic bursts (e) | Decrease of CA1 population spike amplitude during short high frequency train (cumulative inhibition) ([6]; 5 pulses at 100 Hz): minimal or no high-frequency stimulation-induced decrease in spike amplitude | Duration of burst ([6]; PKRi 1 μM, bicuculline 2 μM): increased | Number of evoked spikes ([6]; PKRi 1 μM, bicuculline 2 μM): increased | After-discharges after a single stimulus ([6]; PKRi 1 μM, in presence of bicuculline 2 μM, half-maximal stimulation at 0.03 Hz): pronounced after-discharges | Initial slope of EPSPs ([6]; PKRi 1 μM, single stimulus): did not alter | Presynaptic afferent volley ([6]; PKRi 1 μM, single stimulus): did not alter | Amplitude of population spikes ([6]; PKRi 1 μM, single stimulus, WT slices): enhanced | Population spikes (firing) in slices pre-treated with bicuculline ([6]; WT slices pre-treated with the GABAA antagonist bicuculline): no further enhancement of firing | LTP after a single high frequency train (100 Hz for 1 s) (WT hippocampal slices; PKRi 1 μM, WT slices, at 220 min p<0.001): converts E-LTP into L-LTP | Auditory fear memory (freezing 24 hr after training) (WT mice): enhanced | Contextual fear memory (freezing 24 hr after training) (WT mice): enhanced | PKR activity in the hippocampus in vivo (PKR [7]): known to block PKR activity in the hippocampus in vivo | Amplitude of evoked IPSCs [8]: did not alter

COc1ccc(C[C@H]2NC[C@H](O)[C@H]2OC(C)=O)cc1 [anisomycin]
Facilitated L-LTP after a single train ([4]; anisomycin, Pkr−/− slices, at 220 min p<0.01): suppressed

CN1C(=O)CN=C(c2ccccc2)c2cc(Cl)ccc21 [diazepam]
L-LTP after a single train [4]: prevented the induction of L-LTP | L-LTP induction by four trains at 100 Hz (WT hippocampal slices): blocked L-LTP induction | L-LTP induced by four tetanic trains (WT hippocampal slices; low concentration of diazepam (11 μM), WT slices): no effect
